These are literature values, as cited in article PMC2750848 (Journal of medicinal chemistry, 2008).

Marks after values point to notes of the source that are not given here.

The test system of this data set is M. tuberculosis H37Rv.

Regarding “5′-O-[N-(salicyl)sulfamoyl]adenosine [Compound 4]”, the “MIC99 (Fe-deficient)” value (Fe-deficient) is 0.39 ^i µM. Further, the “MIC99 (Fe-rich)” value (Fe-rich) is reported as 1.56 ^i µM.
